How the values were obtained:
Immunogen Peptides = test: NHP#91 Week 14 plasma binding to immunogen peptides by ELISA; format: in vivo, Rhesus macaques; conditions: NHP#91, Week 14, ELISA log AUC
Text: (§1) Rhesus macaques were immunized in 5 groups for NHP#87 with the different MPER peptide liposomes. Group 5 animals were immunized with a swarm of all of the MPER peptide liposomes. 4 animals per group. NHP#91 was a study to compare two adjuvants. Group 1 had MPLA alone and Group2 had R848 alone. The immunogen for both groups was the original MPER656 peptide liposome. The idea was to compare group 1 and 2 from this study to group 4 from NHP#87 where the animals received both MPLA and R848.
(§2) NHP#91 and last group (656+MPLA+R848) is group 4 of NHP#87; Isolated plasma at Week 14 was screened for binding to each immunogen by ELISA. Plotted is the log area under the curve for binding for each individual monkey separated by group. Solid line indicates the average log AUC for each group.

MPER-Specific Proteins = test: NHP#91 Week 14 plasma binding to MPER-specific proteins by ELISA; format: in vivo, Rhesus macaques; conditions: NHP#91, Week 14, ELISA log AUC
Text: as §1
as §2, with “NHP#87 (for all panels pre-immune substracted);” for “NHP#87;”

2F5 mAb [1] = test: SPR binding of 2F5 mAb to MPER peptide-liposomes with TLR adjuvants
Protocol: FIGS. 10A-10C. Interaction of 2F5 mAb with MPER peptide-liposomes conjugated to TLR adjuvants.
FIG. 21 Binding of BNAb 2F5 and 4E10 to MPER peptide-liposomes described in FIGS. 19-20. Synthetic MPER peptide-liposomes complexed to the indicated MPER peptide and TLR adjuvants (R848, Lipid A) were anchored on a BIAcore sencor ship (L1) and each mAb (2 μg/mL) injected over the surface. Binding shown is after subtraction of non-specific signal measured on a control liposome surface.

2F5 mAb [2] = conditions: for 2F5 mAb binding response: background subtracted, 10 seconds after the injection was stopped, peptides anchored to liposomes
Protocol: FIGS. 6A and 6B. […] FIG. 6A. […] FIG. 6B.
SPR binding assays were performed on a BIAcore 3000 (BIAcore Inc, Piscattaway, N.J.) maintained at 20° C. as previously described (Alam et al, J. Immunol. 178:4424-4435 (2007)). […] Specific binding responses of mAb binding were obtained following subtraction of non-specific binding on the scrambled 2F5 peptide surface.

Monophosphoryl Lipid A [MPLA]
plasma binding to immunogen peptides, adjuvant comparison (Immunogen Peptides): better than R848 | plasma binding to MPER-specific proteins, adjuvant comparison (MPER-Specific Proteins): better than R848

NEKDLLALDSWKNLWNWFSITKWLWYIK [MPER656.2]
binding of 2F5 mAb to peptide-liposome construct (2F5 mAb [1]): lack of binding

QQEKNEQELLELDKWASLWNYKRWIILGLNKIVRMYS-biotin [consensus 2F5 epitope]
2F5 mAb binding response (2F5 mAb [2]): 494.6 response unit

QQEKNEQELLELDKWASSWNYKRWIILGLNKIVRMYS-biotin
off-rate of the mAb 2F5-peptide liposome complex (2F5 mAb [2]): significantly slower off-rates | 2F5 mAb binding response (2F5 mAb [2]): 616.7 response unit

— patent US10076567B2, “MPER-liposome conjugates and uses thereof” (Duke University, priority 2013, dated 2018)
